Target: T1, PAR4 (Homo sapiens, UniProt Q96RI0)
T1 construct: expressed in transfected cells; host or cells: HEK293 PAR4 Clone 1.2A (BMS Arctic ID 383940)
T1 sequence (Q96RI0 18-385): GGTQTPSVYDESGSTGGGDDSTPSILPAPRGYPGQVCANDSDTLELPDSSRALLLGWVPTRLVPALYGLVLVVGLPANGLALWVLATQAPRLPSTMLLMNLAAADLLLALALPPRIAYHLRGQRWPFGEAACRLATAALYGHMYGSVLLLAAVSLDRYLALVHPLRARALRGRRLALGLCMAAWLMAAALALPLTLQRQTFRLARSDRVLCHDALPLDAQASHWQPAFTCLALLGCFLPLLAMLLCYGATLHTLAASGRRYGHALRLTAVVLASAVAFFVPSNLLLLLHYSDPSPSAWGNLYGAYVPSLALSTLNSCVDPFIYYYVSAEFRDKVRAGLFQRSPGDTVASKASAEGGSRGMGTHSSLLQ
Experiment: PAR4 FLIPR assay (antagonism of agonist peptide-induced calcium mobilization)
Assay type: cell-based
Summary of the method: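 Antagonism was taken as block of calcium mobilization evoked by the agonist peptide H-Ala-Phe(4-F)-Pro-Gly-Trp-Leu-Val-Lys-Asn-[…]-NH2, added after 30 min room-temperature compound preincubation in dye-loaded PAR4-transfected HEK293 cells (endogenous PAR1). Fluorescence was read on FDSS, with compound addition alone used as the agonist counter-screen; values come from 11-point concentration-response curves.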

Row | Structure (SMILES) | IC50
1 | COc1cnc2c(-c3nc4cc(F)c5c(c4s3)C[C@](C)(CO)O5)cc(C)cc2n1 [Example 181, (R)-(5-fluoro-2-(2-methoxy-7-methylquinoxalin-5-yl)-7-methyl-7,8-dihydrobenzofuro[5,4-d]thiazol-7-yl)methanol] | 52 nM
2 | COc1cnc2c(-c3nc4cc(F)c5c(c4s3)C[C@](C)(COC(=O)Nc3cccnc3)O5)cc(C)cc2n1 [Example 183, (R)-(5-fluoro-2-(2-methoxy-7-methylquinoxalin-5-yl)-7-methyl-7,8-dihydrobenzofuro[5,4-d]thiazol-7-yl)methyl pyridin-3-ylcarbamate] | 2.3 nM
3 | COc1cnc2c(-c3nc4cc(F)c5c(c4s3)C[C@](C)(COC(=O)Nc3cccc(C#N)c3)O5)cc(C)cc2n1 [Example 184, (R)-(5-fluoro-2-(2-methoxy-7-methylquinoxalin-5-yl)-7-methyl-7,8-dihydrobenzofuro[5,4-d]thiazol-7-yl)methyl (3-cyanophenyl)carbamate] | 1.8 nM
4 | COc1cnc2c(-c3nc4ccc5c(c4s3)CC(C)(C)O5)cc(C)cc2n1 [Example 186, 2-(2-methoxy-7-methylquinoxalin-5-yl)-7,7-dimethyl-7,8-dihydrobenzofuro[5,4-d]thiazole] | 8.8 nM
5 | COc1cnc2c(-c3nc4ccc5c(c4s3)C(C)C(CO)O5)cc(C)cc2n1 (centres unmarked) [Example 189, (2-(2-methoxy-7-methylquinoxalin-5-yl)-8-methyl-7,8-dihydrobenzofuro[5,4-d]thiazol-7-yl)methanol] | 11 nM
6 | COc1cnc2c(-c3nc4ccc5c(c4s3)CC(CNC(=O)Oc3ccccc3)O5)cc(C)cc2n1 (centres unmarked) [Example 192, Phenyl ((2-(2-methoxy-7-methylquinoxalin-5-yl)-7,8-dihydrobenzofuro[5,4-d]thiazol-7-yl)methy 1)carbamate] | 8.3 nM
7 | COc1cnc2c(-c3nc4ccc5c(c4s3)CC(CNC(=O)OCc3ccccc3)O5)cc(C)cc2n1 (centres unmarked) [Example 193, Benzyl ((2-(2-methoxy-7-methylquinoxalin-5-yl)-7,8-dihydrobenzofuro[5,4-d]thiazol-7-yl)methyl)carbamate] | 5.3 nM
8 | COc1cnc2c(-c3nc4ccc5c(c4s3)C[C@](C)(COC(=O)Nc3cccnc3)O5)cc(C)cc2n1 [Example 195, (R)-(2-(2-methoxy-7-methylquinoxalin-5-yl)-7-methyl-7,8-dihydrobenzofuro[5,4-d]thiazol-7-yl)methyl pyridin-3-ylcarbamate] | 3.5 nM
9 | COc1cnc2c(-c3nc4cc(F)c5c(c4s3)C[C@@H](CNC(=O)OCc3ccccc3)O5)cc(C)cc2n1 [Example 211, (S)-benzyl ((5-fluoro-2-(2-methoxy-7-methylquinoxalin-5-yl)-7,8-dihydrobenzofuro[5,4-d]thiazol-7-yl)methyl)carbamate] | 1.3 nM
10 | COc1cnc2c(-c3nc4cc(F)c5c(c4s3)C[C@@H](CNC(=O)Oc3ccccc3)O5)cc(C)cc2n1 [Example 212, (S)-phenyl ((5-fluoro-2-(2-methoxy-7-methylquinoxalin-5-yl)-7,8-dihydrobenzofuro[5,4-d]thiazol-7-yl)methyl)carbamate] | 2.1 nM
11 | COc1cnc2c(-c3nc4cc(F)c5c(c4s3)C[C@@H](CNC(=O)Oc3ccc(C)cc3)O5)cc(C)cc2n1 [Example 213, (S)-p-tolyl ((5-fluoro-2-(2-methoxy-7-methylquinoxalin-5-yl)-7,8-dihydrobenzofuro[5,4-d]thiazol-7-yl)methyl)carbamate] | 3.6 nM
12 | COc1cnc2c(-c3nc4cc(F)c5c(c4s3)C[C@@H](CNC(=O)Oc3ccc(Cl)cc3)O5)cc(C)cc2n1 [Example 214, (S)-4-chlorophenyl ((5-fluoro-2-(2-methoxy-7-methylquinoxalin-5-yl)-7,8-dihydrobenzofuro[5,4-d]thiazol-7-yl)methyl)carbamate] | 26 nM
13 | COc1cnc2c(-c3nc4cc(F)c5c(c4s3)C[C@@H](CNC(=O)C(F)(F)F)O5)cc(C)cc2n1 [Example 215, (S)-2,2,2-trifluoro-N-((5-fluoro-2-(2-methoxy-7-methylquinoxalin-5-yl)-7,8-dihydrobenzofuro[5,4-d]thiazol-7-yl)methyl)acetamide] | 2.3 nM

Now from value to compound:

Row | IC50 | Structure (SMILES)
14 | 2.6 nM | COc1cnc2c(-c3nc4cc(F)c5c(c4s3)C[C@](C)(COC(=O)Nc3cnc(C)nc3)O5)cc(C)cc2n1 [Example 182, (R)-(5-fluoro-2-(2-methoxy-7-methylquinoxalin-5-yl)-7-methyl-7,8-dihydrobenzofuro[5,4-d]thiazol-7-yl)methyl (2-methylpyrimidin-5-yl)carbamate]
15 | 6.9 nM | COc1cnc2c(-c3nc4cc(F)c5c(c4s3)C[C@H](COC(=O)Nc3cncnc3)O5)cc(C)cc2n1 [Example 185]
16 | 7.1 nM | COC(=O)NCC1Cc2c(ccc3nc(-c4cc(C)cc5nc(OC)cnc45)sc23)O1 (centres unmarked) [Example 191, Methyl ((2-(2-methoxy-7-methylquinoxalin-5-yl)-7,8-dihydrobenzofuro[5,4-d]thiazol-7-yl)methy 1)carbamate]
17 | 2.5 nM | COc1cnc2c(-c3nc4ccc5c(c4s3)C[C@](C)(COC(=O)Nc3cnc(C)nc3)O5)cc(C)cc2n1 [Example 194, (R)-(2-(2-methoxy-7-methylquinoxalin-5-yl)-7-methyl-7,8-dihydrobenzofuro[5,4-d]thiazol-7-yl)methyl (2-methylpyrimidin-5-yl)carbamate]
18 | 1.6 nM | COc1cnc2c(-c3nc4ccc5c(c4s3)C[C@](C)(COC(=O)Nc3cccc(C#N)c3)O5)cc(C)cc2n1 [Example 196, (R)-(2-(2-methoxy-7-methylquinoxalin-5-yl)-7-methyl-7,8-dihydrobenzofuro[5,4-d]thiazol-7-yl)methyl (3-cyanophenyl)carbamate]
19 | 22 nM | CCOC(=O)NCC1Cc2c(ccc3nc(-c4cc(C)cc5nc(OC)cnc45)sc23)O1 (centres unmarked) [Example 197, Ethyl ((2-(2-methoxy-7-methylquinoxalin-5-yl)-7,8-dihydrobenzofuro[5,4-d]thiazol-7-yl)methyl)carbamate]
20 | 3.1 nM | COc1cnc2c(-c3nc4ccc5c(c4s3)CC(CNC(=O)OCC(C)C)O5)cc(C)cc2n1 (centres unmarked) [Example 198, Isobutyl ((2-(2-methoxy-7-methylquinoxalin-5-yl)-7,8-dihydrobenzofuro[5,4-d]thiazol-7-yl)methy 1)carbamate]
21 | 7.9 nM | COc1cnc2c(-c3nc4cc(F)c5c(c4s3)CC(C)(C)O5)cc(C)cc2n1 [Example 200, 5-fluoro-2-(2-methoxy-7-methylquinoxalin-5-yl)-7,7-dimethyl-7,8-dihydrobenzofuro[5,4-d]thiazole]
22 | 6.5 nM | COc1cnc2c(-c3nc4cc(F)c5c(c4s3)C[C@@H](CNC(=O)OC(C)(C)C)O5)cc(C)cc2n1 [Example 202, (S)-tert-butyl ((5-fluoro-2-(2-methoxy-7-methylquinoxalin-5-yl)-7,8-dihydrobenzofuro[5,4-d]thiazol-7-yl)methyl)carbamate]
23 | 2.3 nM | COc1cnc2c(-c3nc4cc(F)c5c(c4s3)C[C@H](COC(=O)Nc3cccc(C(=O)N(C)C)c3)O5)cc(C)cc2n1 [Example 203, (R)-(5-fluoro-2-(2-methoxy-7-methylquinoxalin-5-yl)-7,8-dihydrobenzofuro[5,4-d]thiazo 1-7-yl)methyl (3-(dimethylcarbamoyl)phenyl)carbamate]
24 | 2.3 nM | COc1cnc2c(-c3nc4cc(F)c5c(c4s3)C[C@H](COC(=O)Nc3ccc(C(=O)N(C)C)cc3)O5)cc(C)cc2n1 [Example 204, (R)-(5-fluoro-2-(2-methoxy-7-methylquinoxalin-5-yl)-7,8-dihydrobenzofuro[5,4-d]thiazo 1-7-yl)methyl (4-(dimethylcarbamoyl)phenyl)carbamate]
25 | 1.3 nM | COc1cnc2c(-c3nc4cc(F)c5c(c4s3)C[C@H](COC(=O)Nc3cncc(C(N)=O)c3)O5)cc(C)cc2n1 [Example 205, (R)-(5-fluoro-2-(2-methoxy-7-methylquinoxalin-5-yl)-7,8-dihydrobenzofuro[5,4-d]thiazo 1-7-yl)methyl (5-carbamoylpyridin-3-yl)carbamate]
26 | 2.2 nM | COc1cnc2c(-c3nc4cc(F)c5c(c4s3)C[C@H](COC(=O)Nc3ccc(-c4ncco4)cc3)O5)cc(C)cc2n1 [Example 207, (R)-(5-fluoro-2-(2-methoxy-7-methylquinoxalin-5-yl)-7,8-dihydrobenzofuro[5,4-d]thiazo 1-7-yl)methyl (4-(oxazol-2-yl)phenyl)carbamate]
27 | 1.1 nM | CNC(=O)c1ccc(NC(=O)OC[C@H]2Cc3c(c(F)cc4nc(-c5cc(C)cc6nc(OC)cnc56)sc34)O2)cc1 [Example 208, (R)-(5-fluoro-2-(2-methoxy-7-methylquinoxalin-5-yl)-7,8-dihydrobenzofuro[5,4-d]thiazo 1-7-yl)methyl (4-(methylcarbamoyl)phenyl)carbamate]
28 | 26 nM | COc1cnc2c(-c3nc4cc(F)c5c(c4s3)C[C@@H](CNC(C)=O)O5)cc(C)cc2n1 [Example 209, (S)-N-((5-fluoro-2-(2-methoxy-7-methylquinoxalin-5-yl)-7,8-dihydrobenzofuro[5,4-d]thiazol-7-yl)methyl)acetamide]
29 | 2.9 nM | COC(=O)NC[C@@H]1Cc2c(c(F)cc3nc(-c4cc(C)cc5nc(OC)cnc45)sc23)O1 [Example 210, (S)-methyl ((5-fluoro-2-(2-methoxy-7-methylquinoxalin-5-yl)-7,8-dihydrobenzofuro[5,4-d]thiazol-7-yl)methyl)carbamate]

Source: patent publication US11932658B2 (BRISTOL-MYERS SQUIBB COMPANY, priority 2016, dated 2024)
